The text below walks through data of patent publication US20050130935A1, “Combination of a beta-2-adrenoceptor agonists and an aminosugars and their use for the treatment immunomodulatory disorders” (priority 2002, published 2005).

The test system of test [1] is arachidonic acid induced ear oedema. The test is described as follows: arachidonic acid induced ear inflammation test in the mouse (Example 177). It counts as in vivo. The settings on record: i.p., 30 minutes before arachidonic acid, ears weighed one hour after application. The method, then:
The objective of this study is to assess the effect of three doses of two chemical complexes of the invention systemically administered in the arachidonic acid induced ear inflammation test in the mouse, a commonly employed method for screening and evaluation of antiinflammatory drugs. Dexamethasone was employed as reference compound.
(§1) The study was performed in female BALB/ca mice from M & B A/S, DK-8680 Ry. At start of the acclimatisation period the mice were in the weight range of 20 g (+/−5 g).
On the day of arrival the animals were randomly allocated to groups of 8 mice.
(§2) The test substances and reference compound were administered intraperitoneally in volumes of 20 ml per kg body weight 30 minutes before application of arachidonic acid to the ear.
All groups were treated with 20 μl arachidonic acid, 100 mg/ml in acetone, on the right ear. […]
(§3) Mean weights and standard deviations were calculated. Relative ear oedema was assessed as the weight difference between right and left ear of each mouse expressed as percent of the left ear. Percent inhibition of the relative ear oedema compared with the vehicle treated groups was calculated for the test substance and reference compound treated groups.
All visible signs of ill health and any behavioural changes were recorded daily during the study. Any deviation from normal was recorded with respect to time of onset, duration and intensity. […]

Test [2] has the same test system. The test is described as follows: arachidonic acid induced ear inflammation test in the mouse, complex versus its components (Example 178). The format is in vivo. The settings on record: i.p.; for inhibition of ear oedema, in words: doses of T17. Here is the method: The objective of this study is to assess the effect of a dose of a complex according to compared to the effect of the corresponding doses of the components of the complex. All compounds were systemically administered in the arachidonic acid induced ear inflammation test in the mouse, a commonly employed method for screening and evaluation of antiinflammatory drugs. Methylprednisolone was employed as reference compound.
as §1
On the day of arrival the animals were randomly allocated to groups of 10 mice.
as §2
All groups were treated with 20 μl arachidonic acid, 100 mg/ml in acetone, on the right ear.
One hour after the arachidonic acid application the mice were sacrificed, the ears cut from the tip with a punch biopsy knife (8 mm diameter) and weighed.
as §3
All visible signs of ill health and any behavioural changes were recorded daily during the study. Any deviation from normal was recorded with respect to time of onset, duration and intensity.
Differences in relative ear oedema between the vehicle treated group and the other groups were tested for significance employing a non-parametric statistical method of analysis, the Mann-Whitney U test. The required level of significance will be p<0.05. […] All statistical analysis was performed employing the statistical software package Analyse-it v. 1.62.

The next test relates to muscular pain. The test is described as follows: case report, with muscular pain (Example 179). The format is in vivo, human. The method, then:
They were then treated with the complex of the invention disclosed in example 56 (1500 mg/day) instead of glucosamine sulfate. […] After two weeks they were symptom free for the first time in 6 years, which persisted for another 6 weeks of treatment, where after the treatment was terminated.

Test [3] relates to osteoarthritis of the knees. As to the kind of experiment: case report, person with osteoarthritis of the knees (Example 180). The format is in vivo, human. The settings on record: for success of earlier analgesic treatment of osteoarthritis of the knees: treatment for periods during 8 years. The method, then: They were then treated with the complex of the invention disclosed in example 56 (1500 mg/day). […] The improvement persisted for the entire treatment period of 10 weeks, where after the treatment was terminated.

Regarding `C[C@@H]1C[C@H]2[C@@H]3CCC4=CC(=O)C=C[C@]4(C)[C@@]3(F)[C@@H](O)C[C@]2(C)[C@@]1(O)C(=O)CO` [Dexamethasone], the “% Inhibition of relative ear oedema” value in test [1] (2 mg/kg) and in test [1] (6 mg/kg) was 0% throughout. With `N[C@H]1C(O)O[C@H](CO)[C@@H](O)[C@@H]1O.O=S(=O)(O)O` (stereo partly shown) [Glucosamine sulfate], the “% Inhibition of relative ear oedema” value in test [2] (997 mg/kg) was determined as 9%. Further, the “inhibition of ear oedema, in words” value in test [2] was “inhibited ear oedema mildly, and not statistically significantly”. Moreover, in the test on muscular pain (1500 mg a day, continuously the last year), the “improvement of muscular pain symptoms on earlier treatment” value is recorded as “small improvement”. For `C[C@H]1C[C@@H]2[C@H]([C@@H](O)C[C@@]3(C)[C@H]2CC[C@]3(O)C(=O)CO)[C@@]2(C)C=CC(=O)C=C12` [Methylprednisolone], in test [2] (30 mg/kg), the “% Inhibition of relative ear oedema” value is 55%. For the compound `CC(C)(C)NCC(O)c1ccc(O)c(CO)c1` (stereo not shown) [Salbutamol], the “% Inhibition of relative ear oedema” value in test [2] (3.0 mg/kg) was found to be 55%. Moreover, the “inhibition of ear oedema, in words” value in test [2] is recorded as “inhibited ear oedema significantly”. Regarding `COc1ccc2c3c1O[C@H]1[C@@H](O)C=C[C@H]4[C@@H](C2)N(C)CC[C@@]341` [codeine], the “success of earlier analgesic treatment of osteoarthritis of the knees” value (“success … of the knees” below) in test [3] is given as “limited success”. With `O=C(O)Cc1ccccc1Nc1c(Cl)cccc1Cl` [diclofenac], in test [3], the “success … of the knees” value is “limited success”. Consider `N[C@H]1C(O)O[C@H](CO)[C@@H](O)[C@@H]1O` (stereo partly shown) [glucosamine], for which the “effect of earlier treatment on osteoarthritis of the knees” value in test [3] (recommended dose, different formulations) is listed as “very limited effect”. As to `CC(C)Cc1ccc(C(C)C(=O)O)cc1` (stereo not shown) [ibuprofen], the “success of earlier analgesic treatment of muscular pain” value in the test on muscular pain (treatment for periods during 6 years) is listed as “limited success”. As for `CS(=O)(=O)c1ccc(C2=C(c3ccccc3)C(=O)OC2)cc1` [rofecoxib], the “success … of the knees” value in test [3] is listed as “limited success”.
